Values of other authors, collected in US20040247676A1, “Use of multi-layer controlled-release tablet comprising ropinirole for the manufacture of medicament for the treatment of fibromyalgia” (priority 2001, published 2004).
Where a name gives a salt, the structure may show the parent alone.

System: fibromyalgia
Settings: immediate release formulation

CCCN(CCC)CCc1cccc2c1CC(=O)N2 [ropinirole hydrochloride]
effectiveness in the treatment of fibromyalgia: particularly effective
